In patent publication US20220402950A1, “SUBSTITUTED BENZIMIDAZOLES AS PAD4 INHIBITORS” (BRISTOL-MYERS SQUIBB COMPANY, priority 2018, published 2022):

Biological target: human PAD4 (hPAD4) (Homo sapiens, UniProt Q9UM07)
Test: RFMS Human PAD4 Functional Assay
Assay type: biochemical
Conditions: hPAD4 RFMS IC50, human PAD4, rapid-fire mass spectrum (RFMS) assay; 5 nM hPAD4, 250 μM BAEE
Description: RFMS Human PAD4 Functional Assay:
Compounds were solubilized in 100% DMSO to achieve a 10 mM compound concentration. Compound stock solutions were stored at RT. A series of dilutions were prepared in DMSO and mixed 8 times with 20 μL mixing volume. Final top concentration of compound in the assay is 50 μM.
0.13 μL of compound solution was added to 13 μL of 10 nM PAD4 in assay buffer. After 30 min 13 μl of 500 μM of BAEE was added in 25 mM hepes, pH 7.5, 5 mM NaCl, 1 mM DTT, 0.2 mg/ml BSA, 0.01% CHAPS, 50 μM Calcium, 5 μM TPEN was added and the reaction incubated for 90 min at 37° C. The enzymatic reaction was quenched by addition of 15 μl of 6.1N TCA, 100% Final Concentration is 20%, 35 μl of 8.5 mM phenyl glyoxal (final concentration 4 mM) is then added and the reaction is incubated for 30 min at 37° C.
After 30 minutes the plates are spun down to remove all precipitate. The enzyme reaction was quenched with an equal volume of methanol containing internal standard (modified citrulline). Samples were loaded onto the Rapid Fire RF300 system (Agilent) wherein they were first sipped for 1000 ms and then directly loaded to a C18 separations cartridge using a mixture of acetonitrile containing 0.01% formic acid for 3000 ms desalting. The flow rate of the mobile phase was 1.5 ml/min.
The dwell time for each transition was set at 200 ms, and the ESI voltage was used at 5500 with a source temperature of 400° C. Extracted ion peaks for each transition were integrated using the Rapid Fire Integrator software. Peak area of analyte was normalized with internal standard.).

Chain of human PAD4 (hPAD4) (Q9UM07 whole entry): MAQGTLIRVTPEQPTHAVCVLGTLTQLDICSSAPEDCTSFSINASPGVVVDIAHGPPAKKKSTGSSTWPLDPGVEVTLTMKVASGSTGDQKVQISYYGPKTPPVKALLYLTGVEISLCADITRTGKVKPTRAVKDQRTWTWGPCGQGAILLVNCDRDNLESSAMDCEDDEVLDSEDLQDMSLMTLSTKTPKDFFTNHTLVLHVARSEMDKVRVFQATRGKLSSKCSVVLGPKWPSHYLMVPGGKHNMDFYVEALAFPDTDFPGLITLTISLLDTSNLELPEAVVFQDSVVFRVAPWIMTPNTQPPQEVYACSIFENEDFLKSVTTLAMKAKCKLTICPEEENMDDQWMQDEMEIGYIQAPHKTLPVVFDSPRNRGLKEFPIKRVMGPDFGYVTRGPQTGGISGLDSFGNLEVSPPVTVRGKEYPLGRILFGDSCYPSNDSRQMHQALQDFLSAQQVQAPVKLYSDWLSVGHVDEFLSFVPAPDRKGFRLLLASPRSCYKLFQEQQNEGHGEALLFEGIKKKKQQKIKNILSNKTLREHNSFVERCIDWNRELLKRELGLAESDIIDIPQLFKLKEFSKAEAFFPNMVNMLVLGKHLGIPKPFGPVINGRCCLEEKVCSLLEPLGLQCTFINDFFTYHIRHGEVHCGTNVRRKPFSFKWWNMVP

SMILES	IC50 [nM]
COc1cc(C(=O)N2C[C@H]3CC[C@@H]2[C@@H]3N)cc2nc(-c3cc4cccc(C5CCN(C(=O)C6CC67CC7)CC5)c4n3CC3CC3)n(C)c12 (stereo partly drawn) [Example 224, (4-(2-(5-((1R,4R,7R)-7-amino-2-azabicyclo[2.2.1]heptane-2-carbonyl)-7-methoxy-1-methyl-1H-benzo[d]imidazol-2-yl)-1-(cyclopropylmethyl)-1H-indol-7-yl)piperidin-1-yl)(spiro[2.2]pentan-1-yl)methanone]	78
COc1cc(C(=O)N2C[C@H]3CC[C@@H]2[C@@H]3N)cc2nc(-c3cc4cccc(C5CN(C(C)=O)C5)c4n3CC3CC3)n(Cc3cnn(C)c3)c12 [Example 210, 1-(3-(2-(5-((1R,4R,7R)-7-amino-2-azabicyclo[2.2.1]heptane-2-carbonyl)-7-methoxy-1-((1-methyl-1H-pyrazol-4-yl)methyl)-1H-benzo[d]imidazol-2-yl)-1-(cyclopropylmethyl)-1H-indol-7-yl)azetidin-1-yl)ethan-1-one]	18
COc1cc(C(=O)N2C[C@H]3CC[C@@H]2[C@@H]3N)cc2nc(-c3cc4cccc(-c5cn[nH]c5)c4n3CC3CC3(Cl)Cl)n(C)c12 (stereo partly drawn) [Example 151, ((1R,4R,7R)-7-amino-2-azabicyclo[2.2.1]heptan-2-yl)(2-(1-((2,2-dichlorocyclopropyl)meth-yl)-7-(1H-pyrazol-4-yl)-1H-indol-2-yl)-7-methoxy-1-methyl-1H-benzo[d]imidazol-5-yl)methanone]	104
COc1cc(C(=O)N2C[C@H]3CC[C@@H]2[C@@H]3N)cc2nc(-c3cc4cccc(C5=CCN(C(C)=O)CC5)c4n3CC3CC3)n(C)c12 [Example 220, 1-(4-(2-(5-((1R,4R,7R)-7-amino-2-azabicyclo[2.2.1]heptane-2-carbonyl)-7-methoxy-1-methyl-1H-benzo[d]imidazol-2-yl)-1-(cyclopropylmethyl)-1H-indol-7-yl)-3,6-dihydropyridin-1(2H)-yl)ethan-1-one]	43
COc1cc(C(=O)N2C[C@H]3CC[C@@H]2[C@@H]3N)cc2nc(-c3cc4cccc(Nc5cn(C)nc5C)c4n3CC3CC3(Cl)Cl)n(C)c12 (stereo partly drawn) [Example 179, ((1R,4R,7R)-7-amino-2-azabicyclo[2.2.1]heptan-2-yl)(2-(1-((2,2-dichlorocyclopropyl)meth-yl)-7-((1,3-dimethyl-1H-pyrazol-4-yl)amino)-1H-indol-2-yl)-7-methoxy-1-methyl-1H-benzo[d]imidazol-5-yl)methanone]	24
COc1cc(C(=O)N2C[C@H]3CC[C@@H]2[C@@H]3N)cc2nc(-c3cc4cccc(Nc5cn(C)nc5C)c4n3CC3CC3)n(C)c12 [Example 173, ((1R,4R,7R)-7-amino-2-azabicyclo[2.2.1]heptan-2-yl)(2-(1-(cyclopropylmethyl)-7-((1,3-dimethyl-1H-pyrazol-4-yl)amino)-1H-indol-2-yl)-7-methoxy-1-methyl-1H-benzo[d]imidazol-5-yl)methanone]	42
COc1cc(C(=O)N2C[C@H]3CC[C@@H]2[C@@H]3N)cc2nc(-c3cc4cccc(C5CC(C(=O)N6CC[C@@H](O)C6)C5)c4n3CC3CC3)n(C)c12 (single isomer, unassigned) [Example 51]	48
COc1cc(C(=O)N2CC3CCC2[C@@H]3N)cc2nc(-c3cc4cccc(-c5ccc6ccn(C)c6c5)c4n3CC3CC3)n(C)c12 (stereo partly drawn) [Example 126, ((7R)-7-amino-2-azabicyclo[2.2.1]heptan-2-yl)(2-(1′-(cyclopropylmethyl)-1-methyl-1H,1′H-[6,7′-biindol]-2′-yl)-7-methoxy-1-methyl-1H-benzo[d]imidazol-5-yl)methanone]	110
COc1cc(C(=O)N2C[C@H]3CC[C@@H]2[C@@H]3N)cc2nc(-c3cc4cccc(CCC5CCCNC5)c4n3CC3CC3)n(C)c12 (stereo partly drawn) [Example 32, (1R,4R,7R)-2-{2-[1-(cyclopropylmethyl)-7-[2-(piperidin-3-yl)ethyl]-1H-indol-2-yl]-7-methoxy-1-methyl-1H-1,3-benzodiazole-5-carbonyl}-2-azabicyclo[2.2.1]heptan-7-amine]	32
COc1cc(C(=O)N2C[C@H]3CC[C@@H]2[C@@H]3N)cc2nc(-c3cc4cccc(OC)c4n3CC3CC3)n(C)c12 [Example 148, ((1R,4R,7R)-7-amino-2-azabicyclo[2.2.1]heptan-2-yl)(2-(1-(cyclopropylmethyl)-7-methoxy-1H-indol-2-yl)-7-methoxy-1-methyl-1H-benzo[d]imidazol-5-yl)methanone]	61

Same assay, conditions: human PAD4, rapid-fire mass spectrum (RFMS) assay; 5 nM hPAD4, 250 μM BAEE; read-out: hPAD4 RFMS IC50

SMILES	IC50 [nM]
CCOP(=O)(OCC)c1cccc2cc(-c3nc4cc(C(=O)N5C[C@H]6CC[C@@H]5[C@@H]6N)cc(OC)c4n3C)n(CC3CC3)c12 [Example 107, diethyl (2-{5-[(1R,4R,7R)-7-amino-2-azabicyclo[2.2.1]heptane-2-carbonyl]-7-methoxy-1-methyl-1H-1,3-benzodiazol-2-yl}-1-(cyclopropylmethyl)-1H-indol-7-yl)phosphonate]	86
COc1cc(C(=O)N2C[C@H]3CC[C@@H]2[C@@H]3N)cc2nc(-c3cc4cccc(-c5ccc(O)c(CO)c5)c4n3CC3CC3)n(C)c12 [Example 119, ((1R,4R,7R)-7-amino-2-azabicyclo[2.2.1]heptan-2-yl)(2-(1-(cyclopropylmethyl)-7-(4-hydroxy-3-(hydroxymethyl)phenyl)-1H-indol-2-yl)-7-methoxy-1-methyl-1H-benzo[d]imidazol-5-yl)methanone]	20
COc1cc(C(=O)N2C[C@H]3CC[C@@H]2[C@@H]3N)cc2nc(-c3cc4cccc(-c5ccc(O)c(C(=O)O)c5)c4n3CC3CC3)n(C)c12 [Example 121, 5-(2-(5-((1R,4R,7R)-7-amino-2-azabicyclo[2.2.1]heptane-2-carbonyl)-7-methoxy-1-methyl-1H-benzo[d]imidazol-2-yl)-1-(cyclopropylmethyl)-1H-indol-7-yl)-2-hydroxybenzoic Acid]	753
COc1cc(C(=O)N2C[C@H]3CC[C@@H]2[C@@H]3N)cc2nc(-c3cc4cccc(C5CN(C(C)=O)C5)c4n3CC3CC3)n(C)c12 [Example 37, 1-(3-(2-(5-((1R,4R,7R)-7-amino-2-azabicyclo[2.2.1]heptane-2-carbonyl)-7-methoxy-1-methyl-1H-benzo[d]imidazol-2-yl)-1-(cyclopropylmethyl)-1H-indol-7-yl)azetidin-1-yl)ethan-1-one]	26
CNC(=O)C1CC(c2cccc3cc(-c4nc5cc(C(=O)N6C[C@H](N)C[C@@H](F)C6)cc(OC)c5n4C)n(CC4CC4)c23)C1 (single isomer, unassigned) [Example 112]	145
COc1cc(C(=O)N2C[C@H]3CC[C@@H]2[C@@H]3N)cc2nc(-c3cc4cccc(C5CCCC(C(N)=O)C5)c4n3CC3CC3)n(C)c12 (single isomer, unassigned) [Example 86]	40
COc1cc(C(=O)N2C[C@H]3CC[C@@H]2[C@@H]3N)cc2nc(-c3cc4cccc(-c5ccccc5CO)c4n3CC3CC3)n(C)c12 [Example 181, ((1R,4R,7R)-7-amino-2-azabicyclo[2.2.1]heptan-2-yl)(2-(1-(cyclopropylmethyl)-7-(2-(hydroxymethyl)phenyl)-1H-indol-2-yl)-7-methoxy-1-methyl-1H-benzo[d]imidazol-5-yl)methanone]	127
